Laboratory results reported in patent publication US20220154189A1, “COMPOSITIONS AND METHODS FOR THE TREATMENT OF KRAS ASSOCIATED DISEASES OR DISORDERS” (Dicerna Pharmaceuticals, Inc., priority 2019, published 2022).

Columns and labels:
[1] = tested on: KRAS mRNA; experiment: in vitro screen of KRAS DsiRNA constructs, KRAS mRNA expression in MIA PaCa2 cells; format: cell-based, human; details: lipofectamine, 1 nM and 0.1 nM, 24 hours
From the text: A nucleic acid inhibitor molecule that targets the KRAS gene (KRAS1) was constructed. First, several 25/27-mer KRAS DsiRNAs (with no modifications except for three methyls on the 3′ end of the guide strand) were selected. These constructs were then converted into a nicked-tetraloop format, using the U/GG convention as 22-mers, such that bases came off the guide strand starting from the 5′ end. These DsiRNAs were screened in human pancreatic carcinoma (MIA PaCa2) cells in vitro using lipofectamine at 1 nM and 0.1 nM concentrations of each construct to determine the potency.

[2] = tested on: KRAS mRNA; experiment: KRAS mRNA expression in mouse tumor models using MIA PaCa2 and LS411N tumor cells; format: in vivo, human; details: MIA PaCa 2 and LS411N tumor models, LNP-formulated tetraloops, 3 mg/kg daily for three days, 24 hours after
Description: FIG. 3B is a column scatter plot showing KRAS mRNA expression levels in a mouse tumor model using MIA PaCa2 tumor cells 24 hours after three-day daily administration of 3 mg/kg of KRAS nucleic acid inhibitor molecules as described in Example 1 and shown in FIG. 3A.
FIG. 3C is a column scatter plot showing KRAS mRNA expression levels in a mouse tumor model using MIA LS411N tumor cells 24 hours after three-day daily administration of 3 mg/kg of KRAS nucleic acid inhibitor molecules as described in Example 1 and shown in FIG. 3A.
The tetraloop sequences were tested in tumor models using MIA PaCa 2 and colon cancer LS411N cell lines. The best two from this screen (KRAS-465T and KRAS-446T) were then further modified to have a 4′-oxymethylphosphonate modification on the nucleotide at the 5′-end of the antisense strand (KRAS-465T/MOP and KRAS-446T/MOP). The sense strand of KRAS-465T/MOP contains SEQ ID NO: 13 (5′-[…]-3′), and the antisense strand of KRAS-465T/MOP contains SEQ ID NO: 14 (3′-[…]-5′, wherein underlining indicates a 4′-oxymethylphosphonate modification). The sense strand of KRAS-446T/MOP contains SEQ ID NO: 15 (5′-[…]-3′), and the antisense strand of KRAS-446T/MOP contains SEQ ID NO: 16 (3′-[…]-5′, wherein underlining indicates a 4′-oxymethylphosphonate modification).

[3] = tested on: Pan02 tumors; experiment: tumor growth inhibition, Pan02 tumors in C57BL/6 mice; format: in vivo, mouse
Description: (§1) 6 to 8 week old immunocompetent or immunocompromised mice (C57BL/6/Nude) were injected subcutaneously with 2×10^6 Pan02 (mouse pancreatic cell line) or 5×10^6 Panc1 (human pancreatic cell line) tumor cells under the right shoulder. Tumor volume was measured every 2-3 days a week to monitor tumor growth. Dosing was initiated when the tumors reached about 200 mm^3. For tumor growth inhibition studies, animals were randomized and assigned to different cohorts and subjected to dosing cycles. KRAS1-formulated LNP (“KRAS/LNP”) or Placebo (scrambled KRAS dsRNAi) formulated LNP was given intravenously via lateral tail vein at a total volume of 10 ml/kg. Immuno-modulatory agents (CSF1 antibody, TGF-β inhibitor, or checkpoint inhibitors) were given intraperitoneally or orally at a volume of 10 ml/kg. Trametinib (MEK inhibitor) was given orally at a total volume of 10 ml/kg.
(§2) Mouse pancreatic cell line Pan02 was obtained from NCI, and human pancreatic cell line Panc1 cells were obtained from ATCC (Manassas, Va.) and grown in RPMI/DMEM medium supplemented with 10% FBS. Pan02 is a murine PDAC cell line with KRAS G12D mutation. Panc1 is a human PDAC cell line with KRAS G1D mutation.
To see if the KRAS knockdown observed could be translated into growth inhibition, Pan02 tumors were implanted as described above, and when they reached the right sizes (e.g., about 200 mm^3), they were sorted and treated with KRAS/LNP or Placebo/LNP (cKras) at 10 mpk once a week for 3 weeks, and the tumor growth was monitored.

[4] = tested on: Panc1 tumors; experiment: tumor growth inhibition, human PDAC Panc1 tumors in nude mice; format: in vivo; details: gemcitabine 50 mpk, several rounds
Description: as §1
as §2, with “[…] mutation. […]” for “G1D mutation.”

[5] = tested on: Pan02 tumors; experiment: qPCR of tumor microenvironment and stromal activation marker mRNAs in Pan02 tumors; format: in vivo, mouse
Description: To see if a single KRAS/LNP treatment would lead to modulation of the tumor microenvironment, samples from the study described in Example 3 (FIGS. 5A-B) were analyzed for certain T-cell markers (CD8 and FoxP3) and chemokines (CXCL1). FoxP3 is a marker for immunosuppressive T cells (Tregs), which play an important role in regulating or suppressing other cells of the immune system. CXCL1 is a chemokine that actively recruits suppressive molecules such as Tregs and myeloid-derived suppressor cells to the tumor microenvironment.
To see if continuous KRAS inhibition would lead to modulation of the tumor microenvironment, Pan02 tumors from the efficacy study described in Example 3 (FIG. 6) were collected 24 hours after the last dose and subjected to qPCR to measure mRNAs of immune cell markers (CD8, FoxP3), immune suppressive cytokines (CXCL1, CXCL5, and IL10), immune checkpoints (PD-L1) or stromal activation markers (TGF-0, Axin2, ROBO1, and CSF3). […] This in turn led to down-regulation of several key suppressive molecules (FoxP3, CXCL1, and CXCL5). […]
A similar study was repeated in Pan02 tumors as well. […] In this case, tumors were collected and analyzed for the mRNA markers that contribute to modulation of the tumor microenvironment and stromal activation.

[6] = tested on: KRAS; experiment: mRNA analysis of KRAS in trametinib-resistant Panc1 tumors; format: in vivo, human; details: trametinib-resistant Panc1 tumors after KRAS/LNP 5 mpk (qdx3), compared to resistant tumors without KRAS/LNP
Description: (§3) To see how trametinib performed in human PDAC, Panc1 tumors were implanted as described above and treated with trametinib (3 mg/kg/dose) as shown in FIG. 12A. Tumor measurements were taken throughout the entire study period to monitor the tumor growth. […] Tumors were collected before and after KRAS/LNP treatments for mRNA analysis.

[7] = tested on: Cd274 (PD-L1) mRNA; experiment: mRNA analysis of Cd274 (PD-L1) in Panc1 tumors; format: in vivo, human; details: MEKi+KRAS DsiRNA treatment
Description: as §3

[8] = tested on: Pan02 tumors; experiment: FoxP3 and CD8 immunohistochemistry of Pan02 tumors; format: in vivo, mouse; details: KRAS DsiRNA combined with an MEK inhibitor
[9] = Pan02 tumors, gemcitabine treatment without KRAS/LNP
[10] = Pan02 tumors, continuous KRAS inhibition (10 mpk weekly x3), 24 hours after last dose
[11] = Pan02 tumors, single KRAS/LNP treatment 10 mg/kg, 24 hours after last dose

## KRAS-194: 25/27-mer KRAS DsiRNA; sense strand SEQ ID NO: 1, antisense strand SEQ ID NO: 2 (sense GGCCUGCUGAAAAUGACUGAAUATA; antisense UAUAUUCAGUCAUUUUCAGCAGGCCUC; Dicer-substrate siRNA, chemical modification pattern not given here)
[1]
  KRAS mRNA expression, ranking of potency in the in vitro screen: best three

## KRAS-446T: KRAS tetraloop construct; sense strand SEQ ID NO: 15, antisense strand SEQ ID NO: 19 (sense GUAUUUGCCAUAAAUAAUAAGCAGCCGAAAGGCUGC; antisense UUAUUAUUUAUGGCAAAUACGG; sense strand forms tetraloop hairpin, modification pattern not given here)
[2]
  KRAS mRNA expression, ranking in the tumor model screen: best two

## KRAS-465: 25/27-mer KRAS DsiRNA; sense strand SEQ ID NO: 3, antisense strand SEQ ID NO: 4 (sense CUAAAUCAUUUGAAGAUAUUCACCA; antisense UGGUGAAUAUCUUCAAAUGAUUUAGUA; Dicer-substrate siRNA, chemical modification pattern not given here)
[1]
  KRAS mRNA expression, ranking of potency in the in vitro screen: best three

## Cc1cccc(-c2nn3c(c2-c2ccnc4ccc(C(N)=O)cc24)CCC3)n1 [galunisertib]
[3]; orally 75 mpk (BID×2/cycle) for 2 weeks, vs Vehicle
  tumor growth inhibition: about 50%

## KRAS-465T: KRAS tetraloop construct; sense strand SEQ ID NO: 13, antisense strand SEQ ID NO: 18 (sense CUAAAUCAUUUGAAGAUAUAGCAGCCGAAAGGCUGC; antisense UAUAUCUUCAAAUGAUUUAGGG; sense strand forms tetraloop hairpin, modification pattern not given here)
[2]
  KRAS mRNA expression, ranking in the tumor model screen: best two

## KRAS-446: 25/27-mer KRAS DsiRNA; sense strand SEQ ID NO: 5, antisense strand SEQ ID NO: 6 (sense GUAUUUGCCAUAAAUAAUACUAAAT; antisense AUUUAGUAUUAUUUAUGGCAAAUACAC; Dicer-substrate siRNA, chemical modification pattern not given here)
[1]
  KRAS mRNA expression, ranking of potency in the in vitro screen: best three

## Nc1ccn([C@@H]2O[C@H](CO)[C@@H](O)C2(F)F)c(=O)n1 [gemcitabine, reference compound]
[3]; continuous gemcitabine treatment
  tumor growth, response to treatment: became resistant
[4]
  tumor growth, response to treatment: responded nicely at the beginning, they became resistant after several rounds of treatment
[5]; Pan02 tumors treated with gemcitabine until resistant
  CXCL1 mRNA levels: increased
[5]; [9]
  Axin2 mRNA (stromal activation marker): lower
  ROBO1 mRNA (stromal activation marker): lower
  TGF-β mRNA (stromal activation marker): lower

## KRAS1: tetraloop construct with 4′-oxymethylphosphonate at nucleotide 1 of the antisense strand; sense SEQ ID NO: 13, antisense SEQ ID NO: 14 (sense CUAAAUCAUUUGAAGAUAUAGCAGCCGAAAGGCUGC; antisense NAUAUCUUCAAAUGAUUUAGGG; tetraloop DsiRNA, 4'-oxymethylphosphonate on antisense 5'-terminal U, other modifications not given here)
[3]; 10 mpk once a week for 3 weeks, i.v., vs Placebo/LNP
  tumor growth: complete growth inhibition
[5]; [10]
  Axin2 mRNA (stromal activation marker): slightly increased
  CSF3 mRNA (stromal activation marker): slightly increased
  CXCL1 mRNA: down-regulation
  CXCL5 mRNA: down-regulation
  Cd8 mRNA: increased
  Cd274 (PD-L1) mRNA: increased
  FoxP3 mRNA: down-regulation
  ROBO1 mRNA (stromal activation marker): slightly increased
  TGF-0 mRNA (stromal activation marker): slightly increased
[5]; [11]
  CD8 mRNA expression level: unchanged
  CXCL1 mRNA expression level: significantly decreased
  FoxP3 mRNA expression level: significantly decreased
[5]; gemcitabine-resistant Pan02 tumors, single KRAS1 treatment
  CXCL1 mRNA levels: not brought down to baseline
[6]
  KRAS knockdown: 40-50%
[7]
  Cd274 (PD-L1) mRNA levels: increased
[8]
  CD8 expression by immunohistochemistry: increased
  FoxP3 expression by immunohistochemistry: reduced
